{"source": "patent US6784153B1", "about": "“Methods of homing molecules to lung using membrane dipeptidase” (The Burnham Institute, priority 1998, dated 2004)", "key": {"[1]": {"test_system": "kidney cells", "experiment": "phage binding assay on kidney primary cells", "set-up": "species or system mice", "settings": "t test, p<0.02", "protocol": "Phage binding to primary cells was performed as follows. Briefly, Balb/c mice (Harlan Sprague Dawley) were anesthetized with 0.017 ml/g of Avertin as described in Gardner et al., Lab. Animal Sci. 45:199-204 (1995), which is incorporated herein by reference. Under deep anesthesia, mice were perfused through the heart with 10 ml Dulbecco's modified Eagle's medium (DMEM; Irvine Scientific; Santa Ana, Calif.). The lungs, kidneys and brain were then collected, minced, placed in 2 ml of DMEM containing 0.5% BSA (Intergen; Purchase, N.Y.) and 0.5 μg/ml collagenase V (SIGMA) and incubated at 37° C. for 25 minutes. Following collagenase treatment, the tissue was forced through a […] pore cell strainer (Becton Dickinson; Franklin Lake, N.J.). The filtered cells were washed once with 10 ml DMEM supplemented with 10% serum. […] To ensure an equal input of the different phage to be tested, phage were titered several times using K91Kan bacteria (Smith and Scott, supra, 1993).\nFor the binding reaction, 10^9 transducing units (TU) of phage were incubated with 5×10^6 cells in 1 ml DMEM supplemented with 10% serum. The binding was performed at 4° C. for 2 hours with gentle agitation. […] Plates were incubated at 37° C. overnight before the colonies were counted (transducing units, TU)."}, "[2]": {"test_system": "C8161 human melanoma cells", "settings": "cells and peptide mixture cultured overnight; data not shown"}, "[3]": {"target": "T1, 55 kDa lung vascular surface protein (Mus musculus, UniProt P31428)", "T1 construct": "from tissue; host or cells: Balb/c mouse lung, in vivo biotinylated, octylglucoside extract", "T1 sequence (P31428 17-384)": "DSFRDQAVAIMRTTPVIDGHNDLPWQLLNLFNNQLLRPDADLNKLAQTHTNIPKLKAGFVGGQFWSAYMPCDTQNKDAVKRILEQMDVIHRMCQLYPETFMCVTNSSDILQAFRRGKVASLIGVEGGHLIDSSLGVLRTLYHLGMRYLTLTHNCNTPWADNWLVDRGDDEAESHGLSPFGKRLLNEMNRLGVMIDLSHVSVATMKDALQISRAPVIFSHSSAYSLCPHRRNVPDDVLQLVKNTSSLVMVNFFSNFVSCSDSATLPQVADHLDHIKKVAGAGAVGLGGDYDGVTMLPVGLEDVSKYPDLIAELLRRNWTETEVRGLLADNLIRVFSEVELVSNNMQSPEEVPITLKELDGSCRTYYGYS", "experiment": "peptide affinity chromatography of in vivo biotinylated lung extract", "type": "binding", "settings": "elution with GFE-1 peptide", "protocol": "In vivo biotinylation of endothelial cell surface proteins was performed as previously described in De La Fuente et al., Am. J. Physiol. […] Briefly, Balb/c mice were anesthetized with Avertin and perfused slowly through the heart for 10 to 15 minutes with approximately 15 ml of PBS containing 0.5 mg/ml of sulfo-NHS-LC-biotin (Pierce; Rockford, Ill.). Well perfused lungs or control tissues such as brain were then collected and incubated on ice for 20 minutes. The tissues were then homogenized for preparation of extracts as described further below.\nFor preparation of extracts, mouse or rat lungs were first minced and then homogenized with a Brinkman homogenizer (Brinkman; Wesbury, N.Y.) in a minimal volume (2.5 ml/g of tissue) of cold PBS containing 100 mM N-octyl-β-D-glucopyranoside (Calbiochem; La Jolla, Calif.) with 1 mM phenylmethylsulfonyl fluoride (PMSF), 20 μg/ml aprotinin and 1 μg/ml leupeptin (PBS/octylglucoside). The homogenized tissue was incubated on ice for 2 hours, and then centrifuged at 12,000×g for 30 minutes to remove cell debris. The pooled supernatants were cleared of any debris prior to affinity chromatogaphy.\nAll steps were performed at 4° C. […] The matrix contained approximately 2 mg/ml of peptide. […] The extract was applied to the column, and the flow-through re-applied over a period of 90 minutes. The column was then washed with 20 volumes of column buffer. […]"}, "[4]": {"test_system": "lung primary cells", "experiment": "phage binding assay on lung primary cells", "set-up": "species or system mice", "protocol": "Phage binding to primary cells was performed as follows. Briefly, Balb/c mice (Harlan Sprague Dawley) were anesthetized with 0.017 ml/g of Avertin as described in Gardner et al., Lab. […] Under deep anesthesia, mice were perfused through the heart with 10 ml Dulbecco's modified Eagle's medium (DMEM; Irvine Scientific; Santa Ana, Calif.). The lungs, kidneys and brain were then collected, minced, placed in 2 ml of DMEM containing 0.5% BSA (Intergen; Purchase, N.Y.) and 0.5 μg/ml collagenase V (SIGMA) and incubated at 37° C. for 25 minutes. Following collagenase treatment, the tissue was forced through a […] pore cell strainer (Becton Dickinson; Franklin Lake, N.J.). The filtered cells were washed once with 10 ml DMEM supplemented with 10% serum.\nFor the binding reaction, 10^9 transducing units (TU) of phage were incubated with 5×10^6 cells in 1 ml DMEM supplemented with 10% serum. The binding was performed at 4° C. for 2 hours with gentle agitation. After the binding reaction, the cells were washed four times with 1 ml of DMEM supplemented with 10% serum at room temperature for 5 to 10 minutes each time. The cells were centrifuged, and the cell pellet resuspended in 100 μl of DMEM and transferred to a new tube. […] The bacteria were then diluted in 10 ml of LB culture media supplemented with 0.2 μg/ml tetracycline, and incubated for another 30 minutes at room temperature. Serial dilutions of the bacterial culture were plated on LB plates containing 40 μg/ml tetracycline. Plates were incubated at 37° C. overnight before the colonies were counted (transducing units, TU)."}}, "note": "Entries after “also recorded” stand apart in the source; their conditions may differ."}
{"sequence": "CGFECVRQCPERC [lung homing peptide]", "values": [{"measurement": "phage binding to kidney cells relative to fd-tet", "setting": "[1]", "value": "higher than fd-tet binding"}, {"measurement": "toxicity to the melanoma cells", "setting": "[2]", "value": "Neither the GFE-1 (SEQ ID NO: 1) or CARAC (SEQ ID NO: 443) peptides exhibited toxicity"}, {"measurement": "binding of lung surface protein to peptide affinity column", "setting": "[3]", "value": "a 55 kDa biotinylated protein was selectively eluted; also recorded: specifically binds to a 55 kDa lung vascular surface protein"}, {"measurement": "inhibition of GFE-1 phage binding to lung cells", "setting": "[4]; 150 μM peptide", "value": "~70", "unit": "%"}, {"measurement": "phage bound by primary lung cells relative to insertless fd-tet phage", "setting": "[4]; 10^9 TU phage, 5×10^6 cells, 4° C., 2 hours", "value": "about 60 fold"}]}
